Reference: ChEMBL document CHEMBL4651402, “Screening of ~5500 FDA-approved drugs and clinical candidates for anti-SARS-CoV-2 activity” (2021)

Tested on: SARS-CoV-2
Experiment: microbe, parasite or virus in culture
Details: Severe acute respiratory syndrome coronavirus 2, Vero C1008, 48 h

SMILES | IC50 [µM] | IC50 (read-out: pIC50 (converted)) [µM]
CC1(C)OC(=O)Nc2ccc(Br)cc21 [BROFOXINE] | > 20 | > 20
O=C1CN=C(c2ccccn2)c2cc(Br)ccc2N1 [BROMAZEPAM] | > 20 | > 20
CCN(CC)C(=O)N[C@H]1C=C2c3cccc4[nH]c(Br)c(c34)C[C@H]2N(C)C1 [BROMERGURIDE] | > 20 | > 20
Nc1c(CC(=O)O)cccc1C(=O)c1ccc(Br)cc1 [BROMFENAC] | > 20 | > 20
CN(Cc1cc(Br)cc(Br)c1N)C1CCCCC1 [BROMHEXINE] | > 20 | > 20
O=C1c2ccccc2C(=O)C1c1ccc(Br)cc1 [BROMINDIONE] | > 20 | > 20
CC(C)C(Br)C(=O)NC(N)=O (stereo unspecified) [BROMISOVALUM] | > 20 | > 20
O=C(Nc1ccc(Cl)cc1)c1cc(Br)ccc1O [BROMOCHLOROSALICYLANILIDE] | > 20 | > 20
O=C(NO)c1cc(Br)ccc1O [BROMOCYL] | > 20 | > 20
CCN(CC)CCNC(=O)c1cc(Br)c(N)cc1OC [BROMOPRIDE] | > 20 | > 20
O=C(O)C(=O)CBr [BROMOPYRUVATE] | > 20 | > 20
O=C(CCCN1CCC(O)(c2ccc(Br)cc2)CC1)c1ccc(F)cc1 [BROMPERIDOL] | > 20 | > 20
CN(C)CCC(c1ccc(Br)cc1)c1ccccn1 (stereo unspecified) [BROMPHENIRAMINE] | > 20 | > 20
Cc1nnc2n1-c1sc(Br)cc1C(c1ccccc1Cl)=NC2 [BROTIZOLAM] | > 20 | > 20
Cc1ccc2c(Br)cc(Br)c(OC(=O)c3ccccc3)c2n1 [BROXALDINE] | > 20 | > 20
O=c1[nH]c(=O)n([C@H]2C[C@H](O)[C@@H](CO)O2)cc1Br [BROXURIDINE] | > 50.1 | > 50.1
Oc1c(Br)cc(Br)c2cccnc12 [BROXYQUINOLINE] | > 20 | > 20
COc1cc2c(cc1OC)[C@@]13CCN4CC5=CCO[C@H]6CC(=O)N2[C@H]1[C@H]6[C@H]5C[C@H]43 [BRUCINE] | > 20 | > 20
Cn1ncc(-c2nc(N[C@H]3CC[C@H](N)CC3)ncc2Cl)c1CC1CC1 [BTX-A51] | > 20 | > 20

SMILES | IC50 [µM] | IC50 (read-out: pIC50 (converted)) [µM]
CCOc1ccc(NC(=O)CC(C)O)cc1 (stereo unspecified) [BUCETIN] | > 20 | > 20
CCCC(=O)Nc1ncnc2c1ncn2[C@@H]1O[C@@H]2COP(=O)(O)O[C@H]2[C@H]1OC(=O)CCC [BUCLADESINE] | > 20 | > 20
CCCCC1C(=O)NC(=O)N(C2CCCCC2)C1=O (stereo unspecified) [BUCOLOME] | > 20 | > 20
CCCCN(CCCC)CCCOc1c(C)cc(C(=O)c2cc(=O)c3ccccc3o2)cc1C [BUCROMARONE] | > 20 | > 20
CCCC1O[C@@H]2C[C@H]3[C@@H]4CCC5=CC(=O)C=C[C@]5(C)[C@H]4[C@@H](O)C[C@]3(C)[C@]2(C(=O)CO)O1 (stereo partly specified) [BUDESONIDE] | > 20 | > 20
CCCCOc1ccc(CC(=O)NO)cc1 [BUFEXAMAC] | > 20 | > 20
COc1cc(OC)c(C(=O)CCCN2CCCC2)c(OC)c1 [BUFLOMEDIL] | > 20 | > 20
CCCCNC(=N)NC(=N)N [BUFORMIN] | > 20 | > 20
CN(C)CCc1c[nH]c2ccc(O)cc12 [BUFOTENINE] | > 20 | > 20
CCc1cccc2cc(C(O)CNC(C)(C)C)oc12 (stereo unspecified) [BUFURALOL] | > 20 | > 20
CCCCOC(=O)NS(=O)(=O)c1sc(CC(C)C)cc1-c1ccc(Cn2ccnc2)cc1 [BULOXIBUTID] | > 20 | > 20
CCCCC(C(=O)O)C(=O)N(Nc1ccccc1)c1ccccc1 (stereo unspecified) [BUMADIZONE] | > 20 | > 20
CCCCNc1cc(C(=O)O)cc(S(N)(=O)=O)c1Oc1ccccc1 [BUMETANIDE] | > 20 | > 20
Cc1cc(-n2nc3ccc(Cl)cc3n2)c(O)c(C(C)(C)C)c1 [BUMETRIZOLE] | > 20 | > 20
CCCCc1cc(OC)c2ccccc2c1OC(C)=O [BUNAPROLAST] | > 20 | > 20
CC(C)(C)NCC(O)COc1ccccc1C#N (stereo unspecified) [BUNITROLOL] | > 20 | > 20
CN1CC[C@]2(C)c3cc(OC(=O)Nc4ccccc4)ccc3N(C)[C@H]12 [BUNTANETAP] | > 20 | > 20
Nc1cc(C(F)(F)F)c(-c2cc(N3CCOCC3)nc(N3CCOCC3)n2)cn1 [BUPARLISIB] | > 20 | > 20
CCCCN1CCCCC1C(=O)Nc1c(C)cccc1C (stereo unspecified) [BUPIVACAINE] | > 20 | > 20
